Reference: US5258379A, “Method of inhibiting gastric acid secretion with n-arylpiperazines” (Eli Lilly and Company, priority 1992, dated 1993)
Read-outs that look alike come from different tables or passages of the source.

How the values were obtained:
[1] = system: gastric acid secretion; assay: inhibition of gastric acid secretion in the pylorus ligated rat model; format: in vivo, Male Sprague-Dawley rats; conditions: for inhibition in vivo at 10 µmol/kg / inhibition in vivo at 2 µmol/kg: Rattus norvegicus, read-out: Percent Inhibition; for ED50: Table VII, estimated from pylorus ligated rat data; for inhibition in vivo at 2 µmol/kg: 2.0 μmoles/kg; for Inhibition: Table VI
Description: The gastric acid inhibition activity of direct acting 5-HT1A agonists was established by evaluations using the pylorus ligated rat model. In the pylorus ligated rat model, changes in basal acid secretion may reflect a stimulatory or inhibitory action depending on treatment of compound type tested. The compounds tested were confirmed by various receptor binding tests to have an affinity for the 5-HT1A receptor prior to testing in the pylorus ligated rat model.
The pylorus ligated rat model used is a modification of the procedure developed by Shay (Shay, H., Komarov, A. A. and Greenstein, M.: "Effects of vagotomy in the rat." Arch. Surg. 49:210-226, 1949). Male Sprague-Dawley rats weighing approximately 200 g were starved 24 hours prior to using, with water allowed ad libitum. Under light ether anesthetic the pylorus is ligated, simultaneously the rat is dosed intraperitoneally (i.p.) or subcutaneously (s.c.) and allowed 2 hours for stomach acid accumulation. At the end of 2 hours the rats are sacrificed. Stomach content is measured and titrated to a pH end point of 7.0. Each experiment has its own control group for determining percent of acid change over the 2-hour time period.
Specific compounds within the scope of the above general classes of direct acting 5-HT1A agonists were tested. For evaluation purposes, the compound to be tested is dissolved in distilled water, or in 10% dimethyl sulfoxide, depending upon its solubility. The results of these evaluations are set forth below in Tables I through VI. All compounds were dosed intraperitoneally, unless otherwise indicated.
The ED50 values for certain specific compounds were estimated based on data from the pyrolus ligated rat model evaluations. […] Under "Dose", i.p. means intraperitoneally and s.c. means subcutaneously.

[2] = system: gastric secretion; conditions: intravenous infusion in humans, cited from earlier work; for inhibition of gastric secretion (in words): spontaneous and histamine induced
[3] = ip, 2 h, Table I, 10 μmoles/kg, intraperitoneally, 2 hours
[4] = ip, 2 h, Table II, intraperitoneally, 2 hours
[5] = ip, 2 h, Table V, 10 μmoles/kg, intraperitoneally, 2 hours
[6] = Table I, 10 μmoles/kg, intraperitoneally, 2 hours
[7] = ip, 2 h, Table II, 10 μmoles/kg, intraperitoneally, 2 hours
[8] = ip, 2 h, Table IV, 10 μmoles/kg, intraperitoneally, 2 hours
[9] = 10 μmoles/kg, intraperitoneally, 2 hours

## CCCN(CCC)C1CCc2cccc(OC)c2C1 (racemic) [Evaluation Example 1, (±) 8-methoxy-2-(dipropylamino)-1,2,3,4-tetrahydronaphthalene]
[1]; [3]
  inhibition in vivo at 10 µmol/kg: 96.4 ± 0.7%
[1]; ip, 2 h, i.p., read-out: ED50
  ED50: 1.54 µmol/kg

## CCCN(CCC)C1Cc2c[nH]c3ccc(C(=O)OC)c(c23)C1 (racemic) [Evaluation Example 13, (±)-4-(Di-n-propylamino)-1,3,4,5-tetrahydrobenz[c,d]indole-6-carboxylic acid, methyl ester]
[1]; [4]
  inhibition in vivo at 2 µmol/kg: 86.4 ± 2.5%
[1]; ip, 2 h, i.p., read-out: ED50
  ED50: < 0.1 µmol/kg

## CN(C)C1Cc2c[nH]c3ccc(C=O)c(c23)C1 (racemic) [Evaluation Example 17, (±)-4-(Dimethylamino)-1,3,4,5-tetrahydrobenz[c,d]indole-6-carboxaldehyde]
[1]; [4]
  inhibition in vivo at 2 µmol/kg: 79.2 ± 4.6%
[1]; ip, 2 h, i.p., read-out: ED50
  ED50: 1.26 µmol/kg

## O=C1NCN(c2ccccc2)C12CCN(CC1COc3ccccc3O1)CC2 (single isomer, unassigned) [Evaluation Example 28]
[1]; [5]
  inhibition in vivo at 10 µmol/kg: 29.3 ± 10%

## O=C1NCN(c2ccccc2)C12CCN(CC1COc3ccccc3O1)CC2 (single isomer, unassigned) [Evaluation Example 29]
[1]; Table V, 10 μmoles/kg, intraperitoneally, 2 hours
  Percent Inhibition: 24.6 ± 9.2%

## NCCc1c[nH]c2ccc(O)cc12 [5-HT, 5-hydroxytryptamine, reference compound]
[2]
  production of mucus (in words): increasing the production of mucus
  inhibition of gastric secretion (in words): inhibits the volume and acidity of both spontaneous and histamine induced gastric secretion
[1]; 20 micromoles/kg, standard
  inhibition of gastric acid secretion: 56.1%
[1]; ip, 2 h, i.p., read-out: ED50
  ED50: 11.5 µmol/kg

## N[C@@H](Cc1c[nH]c2ccc(O)cc12)C(=O)O [5-HTP, 5-hydroxytryptophane]
[2]
  production of mucus (in words): increasing the production of mucus
  inhibition of gastric secretion (in words): inhibits the volume and acidity of both spontaneous and histamine induced gastric secretion

## CCCN(CCC)[C@@H]1CCc2cccc(SC)c2C1.Cl [Evaluation Example 2, (R)-8-Thiomethyl-N,N-dipropyl-2-aminotetralin hydrochloride]
[1]; [6]
  Percent Inhibition: 94.9 ± 1.2%
[1]; i.p., 120 min
  ED50: 1.56 µmol/kg

## CCCN(CCC)[C@H]1CCc2cccc(SC)c2C1.Cl [Evaluation Example 3, (S)-8-Thiomethyl-N,N-dipropyl-2-aminotetralin hydrochloride]
[1]; [6]
  Percent Inhibition: 89.8 ± 4.9%
[1]; i.p., 120 min
  ED50: 1.42 µmol/kg

## CCCN(CCC)C1CCc2cccc(C(N)=O)c2C1 (stereo not shown) [Evaluation Example 4]
[1]; [3]
  inhibition in vivo at 10 µmol/kg: 82.5 ± 7.4%

## CSc1cccc2c1CC(N(C)C)CC2 (stereo not shown) [Evaluation Example 5, 2-Dimethylamino-8-thiomethyl-1,2,3,4-tetrahydronaphthalene]
[1]; [3]
  inhibition in vivo at 10 µmol/kg: 80.7 ± 8.4%

## CCCN(CCC)C1CCc2cccc(Br)c2C1 (stereo not shown) [Evaluation Example 6, 2-Di-n-propylamino-8-bromo-1,2,3,4-tetrahydronaphthalene]
[1]; [3]
  inhibition in vivo at 10 µmol/kg: 39.6 ± 10.9%

## CCCN(CCC)C1CCc2cccc(F)c2C1 (stereo not shown) [Evaluation Example 7]
[1]; [3]
  inhibition in vivo at 10 µmol/kg: 24.6 ± 7.9%

## CCCN(CCC)C1CCc2cccc(O)c2C1 (stereo not shown) [Evaluation Example 8, 8-hydroxy-2-dipropylamino-1,2,3,4-tetrahydronaphthalene, reference compound]
[1]; ip, 2 h, Table I, intraperitoneally, 2 hours
  inhibition in vivo at 2 µmol/kg: 80.1 ± 6.3%
[1]; ip, 2 h, i.p., read-out: ED50
  ED50: 1.56 µmol/kg
[1]; sc, 2 h, s.c., read-out: ED50
  ED50: 0.46 µmol/kg

## CCCN(CCC)C1Cc2c[nH]c3ccc(C#N)c(c23)C1 (stereo not shown) [Evaluation Example 9]
[1]; [7]
  inhibition in vivo at 10 µmol/kg: 92.2 ± 3.2%

## CN(C)C1Cc2c[nH]c3ccc(C#N)c(c23)C1 (stereo not shown) [Evaluation Example 10]
[1]; [7]
  inhibition in vivo at 10 µmol/kg: 91.6 ± 3.9%

## CCCN(CCC)C1Cc2c[nH]c3ccc([N+](=O)[O-])c(c23)C1 (stereo not shown) [Evaluation Example 11]
[1]; [7]
  inhibition in vivo at 10 µmol/kg: 89.8 ± 1.4%

## CCCN(CCC)C1Cc2c[nH]c3ccc(Br)c(c23)C1 (stereo not shown) [Evaluation Example 12]
[1]; [7]
  inhibition in vivo at 10 µmol/kg: 87 ± 1.8%

## CCCN(CCC)C1Cc2c[nH]c3ccc(OC)c(c23)C1 (stereo not shown) [Evaluation Example 14]
[1]; [7]
  inhibition in vivo at 10 µmol/kg: 86.4 ± 4%
[1]; ip, 2 h, i.p., read-out: ED50
  ED50: < 0.1 µmol/kg

## CCCN(CCC)C1Cc2c[nH]c3ccc(C(=O)O)c(c23)C1 (stereo not shown) [Evaluation Example 15]
[1]; [7]
  inhibition in vivo at 10 µmol/kg: 81.7 ± 5.8%
[1]; ip, 2 h, i.p., read-out: ED50
  ED50: 1 µmol/kg

## CCCN(CCC)C1Cc2cn(C(C)C)c3ccc(OC)c(c23)C1 (stereo not shown) [Evaluation Example 16]
[1]; [7]
  inhibition in vivo at 10 µmol/kg: 80.9 ± 5.5%

## CCCN(CCC)C1Cc2c[nH]c3ccc(C(N)=O)c(c23)C1 (stereo not shown) [Evaluation Example 18]
[1]; ip, 2 h
  inhibition in vivo at 10 µmol/kg: 65.5 ± 7.1%

## CCCN(CCC)CCc1c[nH]c2ccc(C(N)=O)cc12 [Evaluation Example 19, N,N-dipropyl-5-carboxamidotryptamine]
[1]; ip, 2 h
  inhibition in vivo at 10 µmol/kg: 92.7 ± 3.3%

## OC(CNC1CC2CCC1C2)COc1ccccc1C1CCCC1 (stereo not shown) [Evaluation Example 20]
[1]; [8]
  inhibition in vivo at 10 µmol/kg: 72.4 ± 7.5%

## OC(CNC1CCCCCCC1)COc1ccccc1C1CCCC1 (stereo not shown) [Evaluation Example 21, 1-(2-Cyclopentylphenoxy)-3-(cyclooctylamino)-2-propanol ethanedioate]
[1]; [8]
  inhibition in vivo at 10 µmol/kg: 65.1 ± 5.7%

## OC(CNC1CCCC1)COc1ccccc1C1CCCC1 (stereo not shown) [Evaluation Example 24, 1-(2-Cyclopentylphenoxy)-3-(Cyclopentylamino)-2-propanol ethanedioate]
[1]; [8]
  inhibition in vivo at 10 µmol/kg: 19.7 ± 14.8%

## Oc1cccc2c1OC(CNCCCC1CCCCC1)CO2 (stereo not shown) [Evaluation Example 25, 2-[(3-Cyclohexylpropyl)aminomethyl]-8-hydroxy-1,4-benzodioxane]
[1]; [5]
  inhibition in vivo at 10 µmol/kg: 70.4 ± 8.4%

## COc1ccc(CCNCC2COc3ccccc3O2)cc1OC (stereo not shown) [Evaluation Example 26]
[1]; [5]
  inhibition in vivo at 10 µmol/kg: 58.9 ± 6.6%

## CCOc1cccc2c1OC(CNCCc1ccccc1)CO2 (stereo not shown) [Evaluation Example 27, 2-[(2-phenylethyl)aminomethyl]-8-ethoxy-1,4-benzodioxane]
[1]; [5]
  inhibition in vivo at 10 µmol/kg: 38.3 ± 15.9%

## c1ccc(CCNCC2COc3ccccc3O2)cc1 (stereo not shown) [Evaluation Example 30, 2-[(2-phenylethyl)aminomethyl]-1,4-benzodioxane]
[1]; [5]
  inhibition in vivo at 10 µmol/kg: 0.3 ± 14.1%

## CCCN(CCC)C1CC1c1cccc(O)c1 (stereo not shown) [Evaluation Example 31]
[1]; [9]
  Inhibition: 48.2 ± 17.5

## CCCN(CCC)C1CC1c1ccccc1O (stereo not shown) [Evaluation Example 32]
[1]; [9]
  Inhibition: 22.6 ± 11.8

## O=C1CC2(CCCC2)CC(=O)N1CCCCN1CCN(c2ncccn2)CC1 [Evaluation Example 33, 8-[4-[4-(2-pyrimidinyl)-1-piperazinyl]butyl]8-azaspiro[4.5]decane-7,9-dione, reference compound]
[1]; sc, 2 h, s.c., read-out: ED50
  ED50: 4.19 µmol/kg
